Measured values published in paper PMC4289655 (Antiviral Research, 2014).

Target: T1, UL98 (CMV alkaline nuclease) (Human herpesvirus 5 strain AD169, UniProt P16789)
T1 sequence (P16789 1-584): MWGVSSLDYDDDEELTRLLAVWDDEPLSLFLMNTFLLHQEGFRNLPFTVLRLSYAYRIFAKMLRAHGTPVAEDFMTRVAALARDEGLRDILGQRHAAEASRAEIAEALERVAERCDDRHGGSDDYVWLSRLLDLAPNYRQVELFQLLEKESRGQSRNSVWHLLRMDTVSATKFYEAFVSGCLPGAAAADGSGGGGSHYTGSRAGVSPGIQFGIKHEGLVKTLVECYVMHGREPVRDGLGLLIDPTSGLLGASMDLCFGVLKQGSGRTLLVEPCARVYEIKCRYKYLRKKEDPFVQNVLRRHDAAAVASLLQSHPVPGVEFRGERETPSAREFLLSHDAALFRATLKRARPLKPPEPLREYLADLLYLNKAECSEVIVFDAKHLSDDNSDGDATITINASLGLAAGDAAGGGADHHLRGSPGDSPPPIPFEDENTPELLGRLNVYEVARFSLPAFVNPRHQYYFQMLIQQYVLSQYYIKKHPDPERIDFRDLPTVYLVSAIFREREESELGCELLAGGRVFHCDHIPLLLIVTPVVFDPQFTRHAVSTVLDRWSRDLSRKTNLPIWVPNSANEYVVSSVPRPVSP
Assay: TCA-soluble […] release from labeled E. coli duplex DNA
Assay type: biochemical

IC50	Structure (SMILES)
99 µM	CC(=O)Nc1ccc(Nc2cc(S(=O)(=O)O)c(N)c3c2C(=O)c2ccccc2C3=O)cc1 [acid blue 40]
4.5 ± 0.7 µM	Cc1cc(C)c(Nc2cc(S(=O)(=O)O)c(N)c3c2C(=O)c2ccccc2C3=O)c(C)c1 [atanyl blue PRL]
